Assay results taken from US5688787A, “Substituted β-lactam compounds useful as hypochlesterolemic agents and processes for the preparation thereof” (priority 1996, dated 1997).
pIC50: −log10 of the molar value. Like-named read-outs stand apart in the source and are kept apart here.

Tests used:
Hyperlipidemic Hamster = experiment: In Vivo Assay of Hypolipidemic Agents Using the Hyperlipidemic Hamster; conditions: Mesocricetus auratus, po, 168 h, 7 days, percent change versus control, negative = lowering; for change in vivo at 50 mg/kg: 50 mg/kg once daily oral; for change in vivo at 5 mg/kg: 5 mg/kg once daily oral; for change in vivo at 10 mg/kg: 10 mg/kg once daily oral; for change in vivo at 25 mg/kg: 25 mg/kg once daily oral; for change in vivo at 85 mg/kg: 85 mg/kg once daily oral
Method in brief: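 Hamsters, six per group, were fed chow with 0.5% cholesterol for seven days and given compound once daily by oral gavage in corn oil; controls received corn oil alone. Plasma (EDTA) and liver lipids were measured at sacrifice. Values are percent change versus control, so negative means lowering.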

ACAT = biological target: T1, ACAT (Rattus norvegicus, UniProt Q7TQM4); experiment: ACAT Assay (in vitro); assay type: biochemical; conditions: for inhibition at 10 µM: Conc. 10 µM, negative = apparent stimulation, read-out: ACAT (in vitro) % Inhib.; for pIC50: rat liver microsomes, read-out: ACAT (in vitro) IC50
T1 construct: Rat liver microsomes are used as the source of ACAT; from tissue; host or cells: rat liver microsomes
T1 sequence (Q7TQM4 1-524): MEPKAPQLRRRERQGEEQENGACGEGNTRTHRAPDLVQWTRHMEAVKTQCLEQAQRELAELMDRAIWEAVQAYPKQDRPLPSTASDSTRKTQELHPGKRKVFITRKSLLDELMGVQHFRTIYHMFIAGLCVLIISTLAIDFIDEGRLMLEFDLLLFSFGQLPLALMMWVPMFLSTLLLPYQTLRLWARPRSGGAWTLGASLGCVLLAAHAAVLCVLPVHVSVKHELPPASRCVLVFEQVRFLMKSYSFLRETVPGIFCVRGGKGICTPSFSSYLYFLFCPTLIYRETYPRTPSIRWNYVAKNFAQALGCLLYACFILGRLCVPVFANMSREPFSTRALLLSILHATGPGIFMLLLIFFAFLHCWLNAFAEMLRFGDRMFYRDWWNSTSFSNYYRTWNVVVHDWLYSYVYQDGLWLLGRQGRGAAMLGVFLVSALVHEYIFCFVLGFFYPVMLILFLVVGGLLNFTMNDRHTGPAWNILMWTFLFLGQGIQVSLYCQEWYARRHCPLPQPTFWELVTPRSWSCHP

[1] = read-out: % Reduction (in vivo) Cholest. Esters
[2] = read-out: % Reduction (in vivo) Serum Cholest.

| SMILES | inhibition at 10 µM (ACAT) | change in vivo at 50 mg/kg (Hyperlipidemic Hamster; [1]) | change in vivo at 50 mg/kg (Hyperlipidemic Hamster; [2]) | further results |
| --- | --- | --- | --- | --- |
| COc1ccc(N2C(=O)[C@H](CCCc3ccccc3)[C@@H]2c2ccccc2)cc1 (relative stereo) [Example 1B] | 28% | 0% | 0% |  |
| COc1ccc([C@H]2[C@@H](CCc3ccccc3)C(=O)N2c2ccc(OC)cc2)cc1 (relative stereo) [Example 1CC] | 46% | 0% | 0% |  |
| COc1ccc([C@H]2[C@@H](CCOc3ccccc3)C(=O)N2c2ccc(OC)cc2)cc1 (relative stereo) [Example 1CD] | 84% | -23% | 0% | pIC50 (ACAT): 5.15 |
| COc1ccc([C@H]2[C@@H](CCCCCCc3ccccc3)C(=O)N2c2ccc(OC)cc2)cc1 (relative stereo) [Example 1CE] | 15% | -17% | -19% |  |
| COc1ccc([C@H]2[C@@H](CCCC3CCCCC3)C(=O)N2c2ccc(OC)cc2)cc1 (relative stereo) [Example 1CF] | 53% | -47% | -23% |  |
| COc1ccc([C@H]2[C@@H](CCOc3ccc(F)cc3)C(=O)N2c2ccc(OC)cc2)cc1 (relative stereo) [Example 1CG] | 8% | -61% | -30% |  |
| COc1ccc([C@H]2[C@@H](CCCCc3ccccc3)C(=O)N2c2ccc(OC)cc2)cc1 (relative stereo) [Example 1CI] | 26% | -23% | -8% |  |
| CC[C@@]1(c2ccccc2)C(=O)N(c2ccc(OC)cc2)[C@H]1c1ccc(OC)cc1 (relative stereo) [Example 1CK] | -12% | -28% | 0% |  |
| CCCCCCCCCC[C@@H]1C(=O)N(c2ccc(OC)cc2)[C@@H]1c1ccc(OC)cc1 (relative stereo) [Example 1CL] | 89% | -18% | 0% |  |
| COc1ccc(N2C(=O)[C@H](CCCc3ccccc3)[C@@H]2c2ccc3c(c2)OCO3)cc1 (relative stereo) [Example 1CN] | -28% | 0% | 0% |  |
| COc1ccc(N2C(=O)[C@@H](CCCc3ccccc3)[C@@H]2c2ccccc2)cc1 (relative stereo) [Example 1C] | 22% | -15% | -6% |  |
| COc1ccc(N2C(=O)[C@@H](CCc3ccccc3)[C@H]2c2ccccc2)cc1 (relative stereo) [Example 1D] | 39% | 0% | 0% |  |
| COc1ccc(N2C(=O)[C@@H](CCCc3ccccc3)[C@@H]2c2ccc([N+](=O)[O-])cc2)cc1 (relative stereo) [Example 1G] | 21% | 0% | -11% |  |
| COc1ccc(N2C(=O)[C@H](CCCc3ccccc3)[C@@H]2c2ccc([N+](=O)[O-])cc2)cc1 (relative stereo) [Example 1H] | 57% | -51% | -21% |  |
| COc1ccc(N2C(=O)[C@@H](CCCc3ccccc3)[C@@H]2C=Cc2ccccc2)cc1 (relative stereo) [Example 1K] | -70% | 0% | 0% |  |
| COc1ccc(N2C(=O)[C@@H](CCCc3ccccc3)[C@H]2c2ccc(O)cc2)cc1 (relative stereo) [Example 1L] | 20% | -75% | -31% | change in vivo at 5 mg/kg (Hyperlipidemic Hamster; [1]): -30%; change in vivo at 5 mg/kg (Hyperlipidemic Hamster; [2]): -25%; change in vivo at 10 mg/kg (Hyperlipidemic Hamster; [1]): -34%; change in vivo at 10 mg/kg (Hyperlipidemic Hamster; [2]): -22% |
| COc1ccc(C=C[C@H]2[C@H](CCCc3ccccc3)C(=O)N2c2ccc(OC)cc2)cc1 (relative stereo) [Example 1M] | 80% |  |  | change in vivo at 25 mg/kg (Hyperlipidemic Hamster; [1]): -31%; change in vivo at 25 mg/kg (Hyperlipidemic Hamster; [2]): -11%; pIC50 (ACAT): 5.15 |
| COc1ccc(N2C(=O)[C@@H](CCCc3ccccc3)[C@H]2c2cccc(OC)c2)cc1 (relative stereo) [Example 1P] | 39% | -54% | -19% |  |
| CCCCCCCCCC[C@H]1C(=O)N(c2ccc(OC)cc2)[C@H]1c1ccccc1 (relative stereo) [Example 1S] | -19% |  |  | change in vivo at 85 mg/kg (Hyperlipidemic Hamster; [1]): -32%; change in vivo at 85 mg/kg (Hyperlipidemic Hamster; [2]): 0% |
| CCCCCCCCCC[C@@H]1C(=O)N(c2ccc(OC)cc2)[C@H]1c1ccccc1 (relative stereo) [Example 1T] | -11% | 0% | 0% |  |
| COc1ccc(N2C(=O)[C@@](Cc3ccccc3)(c3ccccc3)[C@@H]2c2ccccc2)cc1 (relative stereo) [Example 1X] | 9% | 0% | -12% |  |
| CC[C@@]1(c2ccccc2)C(=O)N(c2ccc(OC)cc2)[C@H]1c1ccccc1 (relative stereo) [Example 1Z] | -15% | -39% | -15% |  |

Second part, led by results:

| inhibition at 10 µM (ACAT) | SMILES | change in vivo at 50 mg/kg (Hyperlipidemic Hamster; [1]) | change in vivo at 50 mg/kg (Hyperlipidemic Hamster; [2]) | further results |
| --- | --- | --- | --- | --- |
| 33% | CC[C@@]1(CCCc2ccccc2)C(=O)N(c2ccc(OC)cc2)[C@H]1c1ccccc1 (relative stereo) [Example 3A] | -29% | -12% |  |
| 84% | COc1ccc(N2C(=O)[C@](CCCc3ccccc3)(c3ccccc3)[C@@H]2c2ccccc2)cc1 (relative stereo) [Example 3B] | -16% | -11% |  |
| 42% | CC[C@@]1(CCCc2ccccc2)C(=O)N(c2c(OC)cc(OC)cc2OC)[C@H]1c1ccccc1 (relative stereo) [Example 3D] | 0% | 0% | pIC50 (ACAT): 4.92 |
| -24% | CC[C@]1(CCCc2ccccc2)C(=O)N(c2ccc(OC)cc2)[C@H]1c1ccccc1 (relative stereo) [Example 3E] | 0% | 0% |  |
| 82% | CC[C@]1(CCCc2ccccc2)C(=O)N(c2c(OC)cc(OC)cc2OC)[C@H]1c1ccccc1 (relative stereo) [Example 3F] | -31% | 0% |  |
| 74% | CC[C@@]1(CCCc2ccccc2)C(=O)N(c2ccc(OC)cc2)[C@H]1C=Cc1ccccc1 (relative stereo) [Example 3G] | 0% | 9% | pIC50 (ACAT): 5.30 |
| 66% | CC[C@]1(CCc2ccccc2)C(=O)N(c2ccc(OC)cc2)[C@H]1c1ccccc1 (relative stereo) [Example 3H] | 31% | -10% |  |
| 43% | COc1ccc(N2C(=O)[C@](C)(CCc3ccccc3)[C@@H]2c2ccccc2)cc1 (relative stereo) [Example 3I] | 0% | -9% |  |
| 45% | COc1ccc(N2C(=O)[C@@](C)(CCCc3ccccc3)[C@@H]2c2ccccc2)cc1 (relative stereo) [Example 3J] | -16% | 0% |  |
